Assay results: patent US20100249413A1, “STABILIZED PHARMACEUTICAL COMPOSITION” (priority 2006, published 2010)

Key:
[1] = bulk material, reported in Patent Document 2; cited from earlier work
[2] = reported in Patent Document 1; cited from earlier work
cancer proliferation = conditions: reported in Patent Document 1; cited from earlier work
[3] = bulk material, reported in Patent Document 2; cited from earlier work; remark: listed apart in the source
[4] = Light stability of compound A solution with various stabilizers: photolyzed substances by HPLC (Experimental Example 1); format: physicochemical; conditions: compound A drug solution 5 mg/mL, D65 lamp/1000 lux, 24 hours, room temperature
Method: Each sample was stored upside-down under a condition of D65 lamp/1000 lux in a constantly changing room temperature for 24 hours to evaluate the stability by measuring the increased amounts of photolyzed substances. The measurement of photolyzed substances was carried out using HPLC.
Mobile phase (liquid A): 0.1% trifluoroacetic acid aqueous solution/acetonitrile=9:2, (liquid B) acetonitirle, gradient % (capacity) B: 0% (0 to 60 min)/linear 75% (60 to 80 min)/linear 0% (80 to 100 min), column:TSK-gel ODS-80TsQA, 4.6×150 mm, particle diameter 5 μm (produced by Tosoh Corp.), flow rate: 1 mL/min, column temperature: 40° C., detection: UV 270 nm.

Row | Photolyzed Substance Amount (%) [4] | SMILES | storage stability (humidity, long-term storage) [1] | toxicity [2] | cancer proliferation-inhibitory activity in vivo (cancer proliferation) | hygroscopicity [3]
1 | – | COCCn1c2c([n+](Cc3cnccn3)c1C)C(=O)c1ccccc1C2=O.[Cl-] [chloride of compound A, 1-(2-methoxyethyl)-2-methyl-4,9-dioxo-3-(pyrazin-2-ylmethyl)-4,9-dihydro-1H-naphtho[2,3-d]imidazol-3-ium chloride] | unstable to humidity | low in toxicity | excellent cancer proliferation-inhibitory activity in vivo | has hygroscopicity
2 | 3.4% | COCCn1c2c([n+](Cc3cnccn3)c1C)C(=O)c1ccccc1C2=O [compound A, 1-(2-methoxyethyl)-2-methyl-4,9-dioxo-3-(pyrazin-2-ylmethyl)-4,9-dihydro-1H-naphtho[2,3-d]imidazol-3-ium] | – | – | – | –
